Measured values taken from ChEMBL document CHEMBL1157539, “Thousands of chemical starting points for antimalarial lead identification” (Nature, 2010).

Test system: Plasmodium falciparum
Experiment: GSK_TCMDC: Inhibition of Plasmodium falciparum 3D7 in whole erythrocytes, using parasite LDH activity as an index of growth.
Type: functional, organism-based
Conditions: Plasmodium falciparum, 3D7

SMILES	XC50 [nM]
Nc1cc(/C=C/c2ccc([N+](=O)[O-])o2)nc2ccccc12	367
c1ccc(-c2nc(NCCCn3ccnc3)cc(-c3ccncc3)n2)cc1	167
O=C(Cn1c(CCc2cccc(F)c2F)nc(=O)c2cccnc21)N(Cc1ccc(-c2ccc(C(F)(F)F)cc2)cc1)C1CCN(C2CCSCC2)CC1	230
CCN(CC)CCN(Cc1ccc(-c2ccc(C(F)(F)F)cc2)cc1)C(=O)Cn1c(CCc2c(F)cccc2F)nc(=O)c2ccccc21	637
O=C(/C=C/c1ccc(Cl)c(Cl)c1)NCCCCCN1CCC(n2c(=O)[nH]c3ccccc32)CC1	869
COc1ccc(-c2cnc(NCc3ccccc3)nc2)cc1CNC1CCN(C)CC1	782
COc1ccccc1C(C)NCC(=O)Nc1cccc(C(=O)Nc2cccc(C(F)(F)F)c2)c1 (stereo unspecified)	1530
Oc1c(Br)cc2oc3c(c2c1CNCc1ccccc1)CCCC3	961
C#CCCC(=O)Nc1cccc(-c2cccc(-c3nc4cc(C(F)(F)F)ccc4[nH]3)c2)c1	805
COc1cc2nc(N3CCC(CNC(=O)c4ccc(-c5ccc(C(=O)N(C)C)cc5)c(OCCO)c4)CC3)nc(N)c2cc1OC	730
Cc1cc(=NN=Cc2cccc(F)c2)c2cccc(C)c2[nH]1	770
CN1CCCCC1CCc1cc(C(=O)Nc2ccc(-c3ccc(O)cc3)cc2)ccc1O (stereo unspecified)	1110
Fc1ccc2[nH]c3c(NCCN4CCCCC4)ncnc3c2c1	834
Cc1cc(NC(=O)NC(=N)N)ccc1Cl	698
CC(C)Oc1ccc2c(c1)OC(c1ccccc1)(C(F)(F)F)NC2=O (stereo unspecified)	136
Cc1[nH]c(C)c(-c2csc3ccccc23)c(=O)c1Cl	1020
COc1c(C2CCN(CCCCNC(=O)c3ccc(-c4ccc(NC(=O)C(F)(F)F)cc4)cc3)CC2)ccc2c1CCCC2	1000
CCN(CCCN1CCCCC1)c1cc(C)nc(Nc2cccc3c2CCCC3)n1	1030
COC(=O)c1cccc(CNCc2ccc(-c3ccc(-c4nc5cccc(C)c5[nH]4)cc3)cc2)c1	283
CC(=O)Nc1ccc(S(=O)(=O)Nc2ccc(Nc3nc(C)cc(N(C)C)n3)cc2)cc1	1160
O=C(Nc1ccc2oc(-c3ccc(Br)cc3)nc2c1)c1ccc([N+](=O)[O-])o1	968
O=c1cc(NCCCNCc2ccc(C(F)(F)F)cc2F)[nH]c2ccccc12	956
CC1CN(CC(O)Cn2c3ccc(Br)cc3c3cc(Br)ccc32)CC(C)O1 (stereo unspecified)	776
COc1cccc(NC(=O)CSc2nc(-c3ccccc3Cl)ns2)c1	814

SMILES	XC50 [nM]
CN(C)CCNCc1nc(-c2ccc3c(Nc4ccc(Oc5ccccc5)cc4)ccnc3c2)cs1	736
CS(=O)(=O)c1ccc(CCNCc2ccc(-c3cccc(-c4nc5ccccc5[nH]4)c3)cc2)cc1	194
CN1CCCC(CN2CCN(Cc3ccc(-c4ccc(-c5nc6ccccc6[nH]5)cc4)cc3)CC2)C1 (stereo unspecified)	141
COc1ccc(-c2cccc(NC(=O)c3cccc(C#N)c3)c2)cc1CN1CCC(O)CC1	990
Cc1cc([N+](=O)[O-])ccc1N1CCN(CCCCNC(=O)c2ccc(NC(=O)c3ccc(Cl)cc3)cc2)CC1	887
CC(C)c1ccc(NC(=O)c2ccc(C(=O)NC3CCN(CC4CCCCC4)CC3)cc2)cc1	645
CCN(CC)/C(=N/C(=N)Nc1ccc(Cl)cc1)NCCCCCCCCN/C(=N\C(=N)Nc1ccc(Cl)cc1)N(CC)CC	403
CNC(=O)C1Cc2c([nH]c3ccc(Br)cc23)C2(CCN(CCc3ccccc3)CC2)N1 (stereo unspecified)	919
O=C(Nc1cccc(-c2ccc(CN3CCCC3)cc2)c1)c1cccc(F)c1	783
CCCCN(CCCC)CCNC(=O)c1cc(OC(F)(F)F)ccc1O	920
CS(=O)(=O)Cc1cccc(Nc2ncc(Cl)c(Nc3cccnc3C(N)=O)n2)c1	168
CC(C)(C)c1ccc(NC(=O)c2ccc(CN3CCCN(Cc4ccsc4)CC3)cc2)cc1	716
Cc1ccc(CC(C)NCC(O)c2cccc(C(F)(F)F)c2)cc1 (stereo unspecified)	981
O=C(Nc1cccc(C(F)(F)F)c1)Nc1ccc(Cl)c(Cl)c1	735
Cc1csc(-c2nonc2NC(=O)COc2ccccc2C(C)C)n1	551
Cc1cccc2nc(-c3cccc(-c4ccc(C(=O)NCc5nccn5C)cc4)c3)[nH]c12	1320
c1ccc(Oc2cccc(Nc3ccnc4ccccc34)c2)cc1	1110
O=C(Nc1ccc(-c2cccc(-c3nc4cc(C(F)(F)F)ccc4[nH]3)c2)cc1)c1ccc(=O)[nH]n1	1070
CCCCNCc1cc(Cl)c2ccccc2c1O	457
O=C(Nc1cccc(CN2CCCN(Cc3cccc(O)c3)CC2)c1)c1ccc2ccccc2c1	786
ON=C1CCc2cc(-c3[nH]c(-c4cccc(OCCNCc5ccc(F)cc5)c4)nc3-c3ccncc3)ccc21	890
Oc1ccc(CCNc2nc(N/N=C/c3ccc(Cl)cc3)nc(N3CCNCC3)n2)cc1	583
COc1ccc(CNCc2cccc(-c3cccc(-c4nc5cc(C(F)(F)F)ccc5[nH]4)c3)c2)cc1	196
CNC(=O)/C=C/c1cc(NC(=O)Nc2cc(C)nc3c(F)cccc23)ccc1OC	908

SMILES	XC50 [nM]
Cc1ccc2[nH]c(C)cc(=NN=Cc3ccccc3Cl)c2c1	752
O=C(CCC1CCCCC1)NCCNc1cccc2ccccc12	831
CN(c1ccc(NC(=O)c2cccc(F)c2)cc1)C1CCCN(Cc2cccc(O)c2)C1 (stereo unspecified)	1300
CCOc1cc2c(cc1OCC)C(c1ccc(O)c(Cl)c1)NCC2 (stereo unspecified)	790
CN(C)Cc1cc2c(O)c(Cc3ccccc3)ccc2o1	1090
CN1CCC(c2c[nH]c3ccc(NC(=O)Nc4ccc(-c5ccncc5)c(Cl)c4Cl)cc23)CC1	696
CCCCCCCCn1c2c(c(=N)c3c1CCC3)CCCC2	109
O=C(NCCCCN1CCC(c2ccc3c(c2OCCN2CCCC2)CCCC3)CC1)c1ccc(-c2ccc(C(F)(F)F)cc2)cc1	447
CN1CCN(c2cc3c(cc2Br)CCN3C(=O)Nc2ccc(-c3cnc4ccccc4c3)cc2)CC1	576
Cc1cc(NCCc2ccccc2)nc(NC(=N)Nc2ccccc2Cl)n1	789
O=C(NCCCCN1CCC(c2ccc3c(c2OC(=O)c2ccc(NC(=O)c4ccc(Cl)cc4)cc2)CCCC3)CC1)c1ccc(NC(=O)c2ccc(Cl)cc2)cc1	203
COc1ccc2ncc(Cl)c([C@H](O)CN3CCC(NCc4cc5c(cn4)OCCO5)CC3)c2c1	116
COc1cccc(OC)c1C(=O)N1CCC2(CC1)C(=O)N(CC(=O)NC1CCCCC1)CN2c1ccccc1	953
CNc1ccc(CNCc2ccc(-c3ccc(-c4nc5cc(F)ccc5[nH]4)cc3)cc2)cc1	210
CCCCCC(C)N/C(=N/c1ccccc1Br)Nc1ccc(C#N)cc1O (stereo unspecified)	751
CN(C)c1ccc(C(c2ccc(N(C)C)cc2)c2cc([N+](=O)[O-])ccc2Cl)cc1	911
COc1cc2nc(NCCC(C)C)n3nc(-c4ccccc4)nc3c2cc1OC	417
CC(C)(C)c1ccc(S(=O)(=O)Nc2ccccc2Cn2nc(N3CCNCC3)ccc2=O)cc1	846
Nc1c(-c2ccc(C(=O)NCCNCc3ccccc3)cc2)cnn1-c1ccc(C(F)(F)F)cc1	1160
CC(C)N(C(=O)CSc1nc2cc(Cl)ccc2c(=O)n1Cc1ccccc1)C(C)C	167
O=C(Nc1ccc(Br)cc1)N(CCN1CCOCC1)CC(O)COCc1ccc(F)cc1 (stereo unspecified)	1040
CC(C)Cc1nc(N2CCOCC2)c2nnn(Cc3ccccc3)c2n1	508
O=C(Cc1ccc(F)cc1)NC1CCN(c2ccnc3cc(Cl)ccc23)C1 (stereo unspecified)	484
